# Assay results published in PubChem BioAssay (NCI).
#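 All cell lines were grown in 96-well plates and treated with compound for 48 hours. GI50 is the concentration that inhibits growth by half. TGI denotes the concentration required for complete inhibition of growth.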
# Experiments:
# Test in all cases: inhibition of tumour cell growth, NCI panel, 48 h
# OVCAR-4 ovarian = system: OVCAR-4 ovarian
# HT29 colon = system: HT29 colon
# RXF 393 renal = system: RXF 393 renal
# A549 NSCLC = system: A549 NSCLC
# UACC-62 melanoma = system: UACC-62 melanoma
# HCT-116 colon = system: HCT-116 colon
# IGROV1 ovarian = system: IGROV1 ovarian
# K-562 leukemia = system: K-562 leukemia
# NCI-H460 lung = system: NCI-H460 lung
# TK-10 renal = system: TK-10 renal
# HOP-92 NSCLC = system: HOP-92 NSCLC
# 786-0 renal = system: 786-0 renal
# HOP-62 NSCLC = system: HOP-62 NSCLC
# M14 melanoma = system: M14 melanoma
# NCI-H23 lung = system: NCI-H23 lung
# HCT-15 colon = system: HCT-15 colon
# DU-145 prostate = system: DU-145 prostate
# NCI/ADR-RES ovarian = system: NCI/ADR-RES ovarian
# HCC-2998 colon = system: HCC-2998 colon
# RPMI-8226 leukemia = system: RPMI-8226 leukemia
# SNB-75 CNS = system: SNB-75 CNS
# UACC-257 melanoma = system: UACC-257 melanoma
# A498 renal = system: A498 renal
# SF-295 CNS = system: SF-295 CNS
# ACHN renal = system: ACHN renal
# HS 578T breast = system: HS 578T breast
# MCF7 breast = system: MCF7 breast
# KM12 colon = system: KM12 colon
# NCI-H522 lung = system: NCI-H522 lung
# MALME-3M melanoma = system: MALME-3M melanoma
# MDA-MB-231 breast = system: MDA-MB-231 breast
# SK-MEL-28 melanoma = system: SK-MEL-28 melanoma
# OVCAR-5 ovarian = system: OVCAR-5 ovarian
# OVCAR-8 ovarian = system: OVCAR-8 ovarian
# BT-549 breast = system: BT-549 breast
# SK-OV-3 ovarian = system: SK-OV-3 ovarian
# LOX IMVI melanoma = system: LOX IMVI melanoma
# CCRF-CEM leukemia = system: CCRF-CEM leukemia
# COLO 205 colon = system: COLO 205 colon
# OVCAR-3 ovarian = system: OVCAR-3 ovarian
# SF-268 CNS = system: SF-268 CNS
# CAKI-1 renal = system: CAKI-1 renal
# EKVX NSCLC = system: EKVX NSCLC
# MDA-MB-435 = system: MDA-MB-435
# SF-539 CNS = system: SF-539 CNS
# SNB-19 CNS = system: SNB-19 CNS
# PC-3 prostate = system: PC-3 prostate
# SW-620 colon = system: SW-620 colon
# T-47D breast = system: T-47D breast
# SK-MEL-2 melanoma = system: SK-MEL-2 melanoma
# NCI-H226 lung = system: NCI-H226 lung
# UO-31 renal = system: UO-31 renal
# U251 CNS = system: U251 CNS
# SN12C renal = system: SN12C renal
smiles,measurement,setting,value
N#C/C(=C\c1c(-c2ccccc2)[nH]c2ccccc12)C(=O)c1ccccc1,GI50,OVCAR-4 ovarian,65.3 µM
same,TGI,OVCAR-4 ovarian,> 100 µM
same,GI50,HT29 colon,3.41 µM
same,TGI,HT29 colon,> 100 µM
same,GI50,RXF 393 renal,9.61 µM
same,TGI,RXF 393 renal,> 100 µM
same,GI50,A549 NSCLC,7.55 µM
same,TGI,A549 NSCLC,> 100 µM
same,GI50,UACC-62 melanoma,3.6 µM
same,TGI,UACC-62 melanoma,> 100 µM
same,GI50,HCT-116 colon,5.29 µM
same,TGI,HCT-116 colon,> 100 µM
same,GI50,IGROV1 ovarian,2.53 µM
same,TGI,IGROV1 ovarian,24.2 µM
same,GI50,K-562 leukemia,> 100 µM
same,TGI,K-562 leukemia,> 100 µM
same,GI50,NCI-H460 lung,4.52 µM
same,TGI,NCI-H460 lung,> 100 µM
same,GI50,TK-10 renal,11.1 µM
same,TGI,TK-10 renal,86.9 µM
same,GI50,HOP-92 NSCLC,4.51 µM
same,TGI,HOP-92 NSCLC,28.7 µM
same,GI50,786-0 renal,16.5 µM
same,TGI,786-0 renal,> 100 µM
same,GI50,HOP-62 NSCLC,16.3 µM
same,TGI,HOP-62 NSCLC,> 100 µM
same,GI50,M14 melanoma,4.78 µM
same,TGI,M14 melanoma,> 100 µM
same,GI50,NCI-H23 lung,16 µM
same,TGI,NCI-H23 lung,> 100 µM
same,GI50,HCT-15 colon,3.53 µM
same,TGI,HCT-15 colon,> 100 µM
same,GI50,DU-145 prostate,5.22 µM
same,TGI,DU-145 prostate,> 100 µM
same,GI50,NCI/ADR-RES ovarian,3.11 µM
same,TGI,NCI/ADR-RES ovarian,> 100 µM
same,GI50,HCC-2998 colon,14.5 µM
same,TGI,HCC-2998 colon,> 100 µM
same,GI50,RPMI-8226 leukemia,2.43 µM
same,TGI,RPMI-8226 leukemia,7.98 µM
same,GI50,SNB-75 CNS,3.2 µM
same,TGI,SNB-75 CNS,34 µM
same,GI50,UACC-257 melanoma,10.9 µM
same,TGI,UACC-257 melanoma,> 100 µM
same,GI50,A498 renal,15.3 µM
same,TGI,A498 renal,> 100 µM
same,GI50,SF-295 CNS,3 µM
same,TGI,SF-295 CNS,> 100 µM
same,GI50,ACHN renal,7.16 µM
same,TGI,ACHN renal,> 100 µM
same,GI50,HS 578T breast,6.26 µM
same,TGI,HS 578T breast,40.5 µM
same,GI50,MCF7 breast,3.95 µM
same,TGI,MCF7 breast,> 100 µM
same,GI50,KM12 colon,1.96 µM
same,TGI,KM12 colon,19.4 µM
same,GI50,NCI-H522 lung,3.98 µM
same,TGI,NCI-H522 lung,32.9 µM
same,GI50,MALME-3M melanoma,12.3 µM
same,TGI,MALME-3M melanoma,> 100 µM
same,GI50,MDA-MB-231 breast,13.2 µM
same,TGI,MDA-MB-231 breast,> 100 µM
same,GI50,SK-MEL-28 melanoma,12 µM
same,TGI,SK-MEL-28 melanoma,> 100 µM
same,GI50,OVCAR-5 ovarian,> 100 µM
same,TGI,OVCAR-5 ovarian,> 100 µM
same,GI50,OVCAR-8 ovarian,21.7 µM
same,TGI,OVCAR-8 ovarian,> 100 µM
same,GI50,BT-549 breast,3 µM
same,TGI,BT-549 breast,> 100 µM
same,GI50,SK-OV-3 ovarian,15.2 µM
same,TGI,SK-OV-3 ovarian,> 100 µM
same,GI50,LOX IMVI melanoma,7.4 µM
same,TGI,LOX IMVI melanoma,> 100 µM
same,GI50,CCRF-CEM leukemia,7.27 µM
same,TGI,CCRF-CEM leukemia,> 100 µM
same,GI50,COLO 205 colon,5.02 µM
same,TGI,COLO 205 colon,> 100 µM
same,GI50,OVCAR-3 ovarian,2.43 µM
same,TGI,OVCAR-3 ovarian,5.75 µM
same,GI50,SF-268 CNS,5.73 µM
same,TGI,SF-268 CNS,58.9 µM
same,GI50,CAKI-1 renal,2.45 µM
same,TGI,CAKI-1 renal,> 100 µM
same,GI50,EKVX NSCLC,9.97 µM
same,TGI,EKVX NSCLC,> 100 µM
same,GI50,MDA-MB-435,0.37 µM
same,TGI,MDA-MB-435,4.14 µM
same,GI50,SF-539 CNS,6.03 µM
same,TGI,SF-539 CNS,43.9 µM
same,GI50,SNB-19 CNS,16.8 µM
same,TGI,SNB-19 CNS,> 100 µM
same,GI50,PC-3 prostate,3.46 µM
same,TGI,PC-3 prostate,> 100 µM
same,GI50,SW-620 colon,2.97 µM
same,TGI,SW-620 colon,> 100 µM
same,GI50,T-47D breast,5.27 µM
same,TGI,T-47D breast,> 100 µM
same,GI50,SK-MEL-2 melanoma,35.2 µM
same,TGI,SK-MEL-2 melanoma,> 100 µM
same,GI50,NCI-H226 lung,6.83 µM
same,TGI,NCI-H226 lung,> 100 µM
same,GI50,UO-31 renal,30.5 µM
same,TGI,UO-31 renal,> 100 µM
same,GI50,U251 CNS,4.73 µM
same,TGI,U251 CNS,27.4 µM
same,GI50,SN12C renal,5.66 µM
same,TGI,SN12C renal,> 100 µM
